Measurements as given in ChEMBL document CHEMBL5308504, “Tm Shift (DSF) assay results for EUbOPEN Chemogenomics Library” (2023).
Values joined by “and” are separate entries in the source; they are usually repeats but may differ in a detail not shown here. Equal entries are not always repeated.

Legend:
Peregrin (Homo sapiens) = target: T1, Peregrin (Homo sapiens) (UniProt P55201); conditions: Compound concentration 20.0 uM, Protein concentration 2.0 uM, Result type QC Liability
T1 sequence (whole entry): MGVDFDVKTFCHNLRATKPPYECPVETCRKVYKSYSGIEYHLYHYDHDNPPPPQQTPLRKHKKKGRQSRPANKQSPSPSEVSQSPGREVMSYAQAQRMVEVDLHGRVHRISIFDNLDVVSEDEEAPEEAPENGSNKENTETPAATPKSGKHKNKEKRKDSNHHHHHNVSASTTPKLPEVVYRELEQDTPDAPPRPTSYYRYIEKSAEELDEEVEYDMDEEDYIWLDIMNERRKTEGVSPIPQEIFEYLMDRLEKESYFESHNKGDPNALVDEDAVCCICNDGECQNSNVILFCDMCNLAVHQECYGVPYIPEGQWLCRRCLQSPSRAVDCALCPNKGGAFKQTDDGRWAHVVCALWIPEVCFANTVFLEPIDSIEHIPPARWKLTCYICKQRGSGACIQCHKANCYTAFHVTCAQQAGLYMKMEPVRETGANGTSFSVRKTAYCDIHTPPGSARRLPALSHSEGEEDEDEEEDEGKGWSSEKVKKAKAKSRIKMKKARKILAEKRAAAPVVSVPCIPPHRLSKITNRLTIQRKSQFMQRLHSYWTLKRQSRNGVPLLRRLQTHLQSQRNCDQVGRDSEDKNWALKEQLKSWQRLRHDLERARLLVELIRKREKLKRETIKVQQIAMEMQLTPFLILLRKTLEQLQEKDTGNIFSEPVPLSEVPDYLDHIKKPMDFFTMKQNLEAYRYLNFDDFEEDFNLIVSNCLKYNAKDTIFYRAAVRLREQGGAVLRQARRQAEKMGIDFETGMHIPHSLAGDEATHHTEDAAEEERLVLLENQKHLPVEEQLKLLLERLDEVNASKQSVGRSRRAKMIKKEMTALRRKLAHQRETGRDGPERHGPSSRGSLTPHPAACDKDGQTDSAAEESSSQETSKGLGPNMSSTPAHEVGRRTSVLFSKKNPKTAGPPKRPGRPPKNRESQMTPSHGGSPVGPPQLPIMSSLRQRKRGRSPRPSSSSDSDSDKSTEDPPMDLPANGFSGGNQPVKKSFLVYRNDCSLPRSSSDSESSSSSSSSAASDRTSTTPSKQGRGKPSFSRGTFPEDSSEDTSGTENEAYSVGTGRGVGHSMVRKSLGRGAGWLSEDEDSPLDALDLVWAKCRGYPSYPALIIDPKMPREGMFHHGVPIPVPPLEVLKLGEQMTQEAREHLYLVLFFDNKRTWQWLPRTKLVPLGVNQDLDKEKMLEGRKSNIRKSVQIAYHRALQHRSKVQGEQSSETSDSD

[1] = target: Fibroblast growth factor receptor 3 (Homo sapiens) (UniProt P22607); conditions: Compound concentration 20.0 uM, Protein concentration 2.0 uM, Result type QC Liability
Chain of Fibroblast growth factor receptor 3 (Homo sapiens) (P22607 23-806 limits assumed): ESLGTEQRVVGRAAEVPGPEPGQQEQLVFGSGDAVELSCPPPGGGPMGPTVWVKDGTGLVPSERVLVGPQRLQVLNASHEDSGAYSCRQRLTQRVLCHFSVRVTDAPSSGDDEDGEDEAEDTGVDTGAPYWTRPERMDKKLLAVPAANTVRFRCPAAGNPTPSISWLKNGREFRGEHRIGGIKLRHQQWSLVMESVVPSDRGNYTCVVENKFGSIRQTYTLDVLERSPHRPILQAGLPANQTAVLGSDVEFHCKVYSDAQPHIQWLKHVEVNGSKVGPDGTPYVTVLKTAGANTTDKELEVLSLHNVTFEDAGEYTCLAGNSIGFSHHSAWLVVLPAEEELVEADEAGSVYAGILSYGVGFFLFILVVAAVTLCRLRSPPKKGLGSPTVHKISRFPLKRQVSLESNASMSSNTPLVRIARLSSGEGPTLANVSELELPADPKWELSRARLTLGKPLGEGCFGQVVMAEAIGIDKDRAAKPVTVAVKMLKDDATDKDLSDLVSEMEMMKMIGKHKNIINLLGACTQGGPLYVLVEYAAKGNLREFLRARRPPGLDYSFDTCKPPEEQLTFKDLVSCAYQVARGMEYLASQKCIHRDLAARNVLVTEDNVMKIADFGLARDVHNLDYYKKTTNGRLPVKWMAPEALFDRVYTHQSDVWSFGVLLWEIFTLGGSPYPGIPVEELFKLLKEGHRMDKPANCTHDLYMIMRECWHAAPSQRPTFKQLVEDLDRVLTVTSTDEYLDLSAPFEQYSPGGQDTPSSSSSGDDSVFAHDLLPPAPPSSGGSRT
Description: Thermal Shift Assay. Domain: start/stop: P449-E759

| Compound | ΔTm (Peregrin (Homo sapiens)) | ΔTm [1] |
| --- | --- | --- |
| CC[C@H]1[C@@H](O)[C@@H]2[C@H](CC[C@]3(C)[C@@H]([C@H](C)CCC(=O)O)CC[C@@H]23)[C@@]2(C)CC[C@@H](O)C[C@@H]12 | -1.33 °C | 0 °C |
| Cn1cc(C(=O)O)c2ccc(N3CCC(OCc4c(-c5c(Cl)cccc5Cl)noc4C4CC4)CC3)cc21 | -1.9 °C | 0.91 °C |
| CSc1ccc(C[C@@H](C)C(=O)O)cc1Nc1nc(N2CC[C@H](N(C)C)C2)cc(C(F)F)c1C#N | -2.68 °C | 0.35 °C |
| CNc1nc(-c2ccc3c(N)n[nH]c3c2)cc(N2C[C@@H](C(=O)NC3CCCCC3)CC[C@H]2C)n1 | -2.05 °C | 2.13 °C |
| COc1cc(C)c(S(=O)(=O)N(C)CCC(=O)N[C@H]2CC[C@@H](N3CCC4CN(C)CC4C3)CC2)c(C)c1 (stereo partly drawn) | -3.59 °C | 1.1 °C |
| CCN(CC)C(=O)C1CN2CCc3cc(OC)c(OC)cc3C2CC1OC(C)=O (stereo not drawn) | -2.07 °C | 0.43 °C |
| O=C(Nc1ccnc(NC(=O)C2CC2)c1)c1c(Cl)cccc1Cl | -1.28 °C | 3.21 °C |
| COCc1nc2cnc3cc(-c4c(C)noc4C)c(OC[C@H]4CCNC4)cc3c2n1[C@H](C)c1ccccc1 | -1.65 °C | 0.6 °C |
| CCOC(=O)Nc1ccc2c(c1)N(C(=O)CN(CC)CC)c1ccccc1CC2 | -1.21 °C | 0.66 °C |
| O=C(O)c1cc(F)c2nc(N3[C@@H]4CC[C@H]3C[C@@H](OCc3c(-c5ccccc5OC(F)(F)F)noc3C3CC3)C4)sc2c1 | -2.96 °C | -3.83 °C |
| Cc1cc2c(-c3ccco3)cnc(N[C@H]3CCN(C)C[C@@H]3C(=O)NC3CCCCC3)c2[nH]c1=O | -1.73 °C | 1 °C |
| CCn1c(=O)c2c(C)c(C(=O)N3CCC(O)CC3)sc2n(CCC(F)(F)F)c1=O | -1.95 °C | 0.45 °C |
| CCN(CC)CCO[C@H]1CC[C@@]2(C)C(=CC[C@@H]3[C@@H]2CC[C@]2(C)C(=O)CC[C@@H]32)C1 | -0.77 °C | 0.44 °C |
| C/C(=C\C(=O)Nc1ccccc1C(=O)O)c1ccc2ccccc2c1 | -1.56 °C | 1.14 °C |
| CCC(=O)O[C@@H](OP(=O)(CCCCc1ccccc1)CC(=O)N1C[C@H](C2CCCCC2)C[C@H]1C(=O)O)C(C)C (stereo partly drawn) | -1.88 °C | 0.42 °C |
| CN1CCC(C#N)(NC(=O)[C@@H](NC(=O)N2CCOCC2)C(C)(C)C)CC1 | -2.33 °C | 0.67 °C |
| O=C(O)CCCc1cc2cc(Cl)ccc2n1S(=O)(=O)c1ccc2ncsc2c1 | -1.78 °C | 0.8 °C |
| O=C(N[C@H]1CCC[C@H](CO)C1)C1CCN(c2nc3cc(Cl)c(-c4ccc(Cl)cc4)cc3o2)CC1 | -0.52 °C | -8.62 °C |
| O=C1CCC(N2Cc3cc(CNC(=O)C(F)(F)c4ccc(Cl)cc4)ccc3C2=O)C(=O)N1 (stereo not drawn) | -1.67 °C | 0.44 °C |
| COc1cc2ncnc(Nc3ccc4c(cnn4Cc4ccccc4)c3)c2cc1OC | -1.65 °C | 1.75 °C |

| Compound | ΔTm (Peregrin (Homo sapiens)) | ΔTm [1] |
| --- | --- | --- |
| CN1CCCN(C(=O)c2cccc(-c3ccc(/C=C4/C(=O)Nc5ccc(Cl)cc54)o3)c2)CC1 | -2.53 °C | 2.18 °C |
| CC(=O)Nc1nc(C)c(S(=O)(=O)Nc2ccc(C(O)(C(F)(F)F)C(F)(F)F)cc2)s1 | -0.9 °C | 0.63 °C |
| COc1ccc(C(=O)N[C@H](C)c2cccc(C(=O)Nc3nc4c(s3)CN(C)CC4)c2)cc1C | -0.23 °C | 0.97 °C |
| CCN(C(=O)c1cc(F)ccc1Oc1cncnc1N1CC2(CCN(C[C@H]3CC[C@H](NS(=O)(=O)CC)CC3)CC2)C1)C(C)C | -0.92 °C | 0.56 °C |
| Cc1cc(CN)cc(C)c1-c1ncn(C)c1-c1cncn1C | -1.81 °C | 0.44 °C |
| C=C(F)C(=O)N1CCN(c2nc(OC[C@@H]3CCCN3C)nc3c2CCN(c2cccc4cccc(Cl)c24)C3)C[C@@H]1CC#N | -3.96 °C | 0.12 °C |
| CNC(=O)COc1cc2cc(Nc3nc(N4C[C@H](C)C[C@H](C)C4)ncc3Cl)ccc2n(C)c1=O | -2.08 °C | 0.62 °C |
| COc1ccccc1Nc1nc(-c2nn(Cc3c(F)cc(OCCCO)cc3F)c3ccccc23)ncc1OC | -1.09 °C | 0.41 °C |
| Cn1cc(-n2cnc3c(NCc4nc5cc(Cl)c(Cl)cc5[nH]4)nc(N4CCOCC4)nc32)cn1 | -0.07 °C | 0.69 °C |
| CC1CCN(C(=O)[C@H](CCn2cccc2C#N)NS(=O)(=O)c2cccc3[nH]ccc23)CC1 | -2.12 °C | 0.35 °C |
| CC(=O)N(CCN(C)C)c1ccc(N/C(=C2\C(=O)Nc3cc(Cl)ccc32)c2ccccc2)cn1 | -1.84 °C | 7.35 °C |
| Cc1ccc(NS(=O)(=O)c2ccc3c(c2)C2C=CCC2C(c2ccc(C(=O)O)cc2)N3)cc1C (stereo not drawn) | -0.5 °C | 0.11 °C |
| COc1cc(F)ccc1-c1ncnc(Nc2cccc(C[S@](C)(=N)=O)c2)n1 | -1.17 °C | 1.31 °C |
| N#Cc1ccc(C#CC[C@@H](C#N)NC(=O)[C@H]2CCCCN2)cc1F | -2.24 °C | 0.88 °C |
| CCn1c(CNC(=O)c2ncc(C)nc2N)[n+](CC)c2ccc(C(=O)N(C)CCN(C)C)cc21 | -1.78 °C | 0.52 °C |
| COc1cc(-c2cn(C)c(=O)c3cnccc23)cc(OC)c1CN(C)C | 1.79 °C | 0.44 °C |
| O=C(O)CCCCCC[C@@H]1C(=O)NC(=O)N1CCC(O)C1CCCCC1 (stereo partly drawn) | -2.88 °C | 0.47 °C |
| N=C(N)NCCC[C@@H](NC(=O)C(c1ccccc1)c1ccccc1)C(=O)NCc1ccc(CNC(N)=O)cc1 | -2 °C | 0.46 °C |
| N=C(N)NCCC[C@H](NC(=O)CC1(CC(=O)N2CCN(C(c3ccccc3)c3ccccc3)CC2)CCCC1)C(=O)NCc1ccccc1 | -4.91 °C | 0.22 °C |
| O=C(CCCCCCc1ccccc1)c1ncc(-c2ccccn2)o1 | -3.08 °C | 0.46 °C |

| Compound | ΔTm (Peregrin (Homo sapiens)) | ΔTm [1] |
| --- | --- | --- |
| O=C(Nc1ccccc1C(=O)O)c1cc(S(=O)(=O)c2ccccc2)ccc1Cl | -3.6 °C | 0.83 °C |
| COc1cc2nc(-c3cc(F)ccc3O)nc(N[C@@H]3CNC[C@H]3C(C)(C)O)c2cc1OC | 0.34 °C | 1.8 °C |
| CCCNc1ccc2ncc(-c3ccncc3)n2n1 | 0.26 °C | 3.37 °C |
| C[C@H](NC(=O)c1cnc2n1[C@](C)(Cc1ccc(C#N)cc1)C(=O)N2c1cc(Cl)c(F)c(Cl)c1)C(=O)NC1(c2ccccn2)CC1 | -0.27 °C | 0.96 °C |
| CN(C)C/C=C/C(=O)Nc1cc2c(Nc3ccc(F)c(Cl)c3)ncnc2cc1OC[C@@H]1CCCO1 | -0.41 °C | 1.49 °C |
| Cc1ccc(-n2nc(C(C)(C)C)cc2NC(=O)Nc2ccc(OCCN3CCOCC3)c3ccccc23)cc1 | -3.09 °C and -0.42 °C | 3.18 °C and 3.23 °C |
| CCc1nc(C2CCC2)n2nc(-c3ccccc3)[nH]c(=O)c12 | -2.47 °C | 0.69 °C |
| Cn1nccc1-c1ccc(Sc2cccc(C3(C(N)=O)CCOCC3)c2)cc1 | -2.35 °C | 0.47 °C |
| CCCn1cc(-c2cc(C3C(=O)N(CC)c4ccc(C(F)(F)F)cc4N(c4ccccc4)C3=O)cc(OC)c2O)cn1 (stereo not drawn) | -1.21 °C | 0.46 °C |
| CCc1cc2c(cc1N1CCC(N3CCOCC3)CC1)C(C)(C)c1[nH]c3cc(C#N)ccc3c1C2=O | -1 °C | 0.56 °C |
| Cn1c(C(=O)N[C@@H](CO)c2ccc(C(=O)O)cc2)cc2cc(Cl)ccc21 | -2.2 °C | 0.81 °C |
| Cn1cnc(Cn2ccc3ccc(CNCc4[nH]c5ccccc5c4[C@H]4NC(=O)c5ccc(O)cc54)cc32)c1 | -2.61 °C | 0.57 °C |
| CC#CCC(C)[C@H](O)/C=C/[C@@H]1[C@H]2C/C(=C/CCCC(=O)O)C[C@H]2C[C@H]1O (stereo partly drawn) | -2.03 °C | 0.4 °C |
| CC(C)N1CCN(Cc2cnc(-c3cc(-c4cccc5[nH]ccc45)cc4[nH]ncc34)o2)CC1 | 0.22 °C | 1.84 °C |
| CN1CCN(c2ccnc(NCCc3ccccc3)n2)CC1 | -1.12 °C | 0.59 °C |
| Cn1ncc(-c2nc(N[C@H]3CC[C@H](N)CC3)ncc2Cl)c1CC1CC1 | -1.56 °C | 1.76 °C |
| CC(C)(C)c1cc(NC(=O)c2csc(Nc3ccccn3)n2)no1 | -2.33 °C | 0.72 °C |
| CC(=O)c1c(C)c2cnc(Nc3ccc(N4CCNCC4)cn3)nc2n(C2CCCC2)c1=O | -1.97 °C and -1.31 °C | 0.56 °C and 0.64 °C |
| Nc1ncnc2c1ccn2[C@@H]1O[C@H]([C@@H](O)c2ccccc2)[C@@H](O)[C@H]1O | -1.55 °C | 0.72 °C |
